Data published in patent US9095581B2, “Combinations of MEK inhibitors and Raf kinase inhibitors and uses thereof” (Ardea Biosciences, Inc., priority 2008, dated 2015).

Assays:
[1] = tested on: Hep3B cells; assay: In vitro cell proliferation assay of Hep3B cell line, compound A with other anticancer agents (Example 6B); assay type: cell-based, human; details: agent in combination with compound A; 3, 4 or 6 days
Method: Cell culture/Growth Inhibition Assay: Human hepatocelluar carcinoma Hep3B cells were obtained from ATCC (Manassas, Va.). Hep3B cells were maintained in EMEM supplemented with 10% fetal bovine serum, penicillin (100 U/ml), and streptomycin (100 μg/ml). Cells were maintained at 37° C., 5% CO2, and 100% humidity. For cell proliferation experiments, cells were plated in white 96-well plates with clear bases at either 3000 cells/100 μl/well, 2000 cells/100 μl/well or 1000 cells/100 μl/well and treated as follows for 3 days, 4 days, or 6 days respectively. […] Following incubation for the indicated time at 37° C., ATP levels were determined using CellTiterGlo (Promega, Madison, Wis.) and reading luminescence values using a Lit Biosystems Analyst HT (Sunnyvale, Calif.). The ATP level for each dose combination was determined in triplicate using independent wells, and the experiment was performed several times. […] For comparison, the dose response for each single agent was also determined. The relative cell proliferation number was determined with the following formula: […]

[2] = tested on: Hep3B Hepatoma cells; assay: In vitro cell proliferation assay of Hep3B cell line (CellTiterGlo ATP levels); assay type: cell-based, human; details: sorafenib alone
Method: The effect of compound A in combination with sorafenib was examined in a cell line derived from a human hepatocellular carcinoma in a cell proliferation assay.
Cell culture/Growth Inhibition Assay: Human hepatocelluar carcinoma Hep3B cells were obtained from ATCC (Manassas, Va.). Hep3B cells were maintained in EMEM supplemented with 10% fetal bovine serum, penicillin (100 U/ml), and streptomycin (100 μg/ml). Cells were maintained at 37° C., 5% CO2, and 100% humidity. For cell proliferation experiments, cells were plated in white 96-well plates with clear bases at either 3000 cells/100 μl/well, 2000 cells/100 μl/well or 1000 cells/100 μl/well and treated as follows for 3 days, 4 days, or 6 days respectively. After 24 hr, cell media was removed and replaced with media containing combinations of compound A of formula I and sorafenib. Following incubation for the indicated time at 37° C., ATP levels were determined using CellTiterGlo (Promega, Madison, Wis.) and reading luminescence values using a LJL Biosystems Analyst FIT (Sunnyvale, Calif.). The ATP level for each dose combination was determined in triplicate using independent wells, and the experiment was performed several times. […] For comparison, the dose response for each single agent was also determined. The relative cell proliferation number was determined with the following formula: […]

[3] = tested on: human gastric adenocarcinoma cell line AGS; assay: In vitro cell proliferative activity of AGS cell line (CellTiterGlo ATP levels); assay type: cell-based
Method: The effect of compound A in combination with sorafenib was examined in a cell line derived from a human gastric adenocarcinoma, in a cell proliferation assay.
Cell culture/Growth Inhibition Assay: The human gastric adenocarcinoma cell line AGS was obtained from ATCC (Manassas, Va.). AGS cells were maintained in DMEM/F12 supplemented with 10% fetal bovine serum, penicillin (100 U/ml), and streptomycin (100 μg/ml). Cells were maintained at 37° C., 5% CO2, and 100% humidity. For cell proliferation experiments, cells were plated in white 96-well plates with clear bases at 3000 cells/100 μl/well. After 24 hr, cell media was removed and replaced with media containing combinations of 621119 and sorafenib. Following incubation for 48 hours at 37° C., ATP levels were determined using CellTiterGlo (Promega, Madison, Wis.) and reading luminescence values using a LJL Biosystems Analyst HT (Sunnyvale, Calif.). The ATP level for each dose combination was determined in triplicate using independent wells, and the experiment was performed several times. For synergy experiments, either 621119 or sorafenib was dosed at a fixed, subefficacious dose, while the second agent (sorafenib or 621119 respectively) was added across a range of doses. For comparison, the dose response for each single agent was also determined. The relative cell proliferation number was determined with the following formula: […]

Row | SMILES | synergy with compound A in cell proliferation [1] | other results
1 | Nc1ccn([C@@H]2O[C@H](CO)[C@@H](O)C2(F)F)c(=O)n1 [Gemcitabine] | no synergy | –
2 | CNC(=O)c1cc(Oc2ccc(NC(=O)Nc3ccc(Cl)c(C(F)(F)F)c3)cc2)ccn1 [sorafenib, 4-[4-[[4-chloro-3-(trifluoromethyl)phenyl]carbamoylamino]phenoxy]-N-methyl-pyridine-2-carboxamide] | – | inhibition of cell proliferation ([2]; 2 μM and lower, after 4 days (FIG. 8C)): little or no inhibition; inhibition of cell proliferation ([2]; 5 μM and lower, after 3 days (FIG. 8A)): little activity; inhibition of cell proliferation (cell number relative to vehicle) ([3]; sorafenib alone at 5 uM, after 48 hours (FIG. 9B)): little activity; inhibition of cell proliferation (relative cell number) ([3]; sorafenib alone, 5 uM and lower, after 48 hours (FIG. 9A)): little activity
3 | Cc1ccc(NC(=O)c2ccc(CN3CCN(C)CC3)cc2)cc1Nc1nccc(-c2cccnc2)n1 [Imatinib] | no synergy | –
4 | O=C(CCCCCCC(=O)Nc1ccccc1)NO [Vorinostat] | no synergy | –
5 | CS(=O)(=O)CCNCc1ccc(-c2ccc3ncnc(Nc4ccc(OCc5cccc(F)c5)c(Cl)c4)c3c2)o1 [Lapatinib] | no synergy | –
6 | CCCCCCCCCCCCCCCCCCOP(=O)([O-])OC1CC[N+](C)(C)CC1 [Perifosine] | no synergy | –
